Measured values published in patent US20080004274A1, “Novel biaromatic compounds that modulate PPAR type receptors and cosmetic/pharmaceutical compositions comprised thereof” (GALDERMA RESEARCH & DEVELOPMENT, priority 2004, published 2008).

Columns and labels:
Type in all cases: cell-based
PPARγ = biological target: T1, PPARγ (Homo sapiens, UniProt P37231); assay: Cross-curve PPAR transactivation test, PPARγ; details: HeLN cells, stable transfectants ERE-βGlob-Luc-SV-Neo and Gal-hPPARγ; luciferase; cross curves against reference agonist, Schild regression; n.a. means not active; read-out: PPAR gamma Kd app
T1 construct: the reporter is ERE-βGlob-Luc
T1 sequence (P37231 238-505 limits assumed): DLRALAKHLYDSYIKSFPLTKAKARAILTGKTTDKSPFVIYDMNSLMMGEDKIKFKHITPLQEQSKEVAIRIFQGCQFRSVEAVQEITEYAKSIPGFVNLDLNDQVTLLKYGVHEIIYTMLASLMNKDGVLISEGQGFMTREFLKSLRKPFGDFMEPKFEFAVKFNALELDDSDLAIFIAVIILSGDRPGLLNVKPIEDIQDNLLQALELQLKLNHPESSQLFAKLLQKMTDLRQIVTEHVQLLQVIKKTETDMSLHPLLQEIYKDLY
Protocol: (§1) The activation of the receptors with an agonist (activator) in HeLN cells leads to the expression of a reporter gene, luciferase, which, in the presence of a substrate, generates light. The modulation of the receptors is measured by quantifying the luminescence produced after incubating the cells in the presence of a reference agonist. The ligands displace the agonist from its site. The measurement of the activity is performed by quantifying the light produced. This measurement makes it possible to determine the modulatory activity of the compounds according to the invention by determining the constant that is the affinity of the molecule for the receptor. Since this value can fluctuate depending on the basal activity and the expression of the receptor, it is referred to as Kd apparent (KdApp in nM).
(§2) To determine this constant, “cross curves” of the test product against a reference agonist are produced in a 96-well plate: 10 concentrations of the test product plus a concentration 0 are arranged in a line, and 7 concentrations of the agonist plus a concentration 0 are arranged in a column. This is 88 measurement points for 1 product and 1 receptor. The remaining 8 wells are used for repeatability controls.
(§3) Measurements are also taken for total agonist controls with the same products.
(§4) The HeLN cell lines used are stable transfectants containing the plasmids ERE-βGlob-Luc-SV-Neo (reporter gene) and PPAR (α, δ, γ) Gal-hPPAR. These cells are inoculated into 96-well plates at a rate of 10 000 cells per well in 100 μl of DMEM medium without phenol red and supplemented with 10% of defatted calf serum. The plates are then incubated at 37° C. and 7% CO2 for 16 hours.
(§5) The various dilutions of the test products and of the reference ligand are added at a rate of 5 μl per well. The plates are then incubated for 18 hours at 37° C. and 7% CO2. The culture medium is removed by turning over and 100 μl of a 1:1 PBS/luciferin mixture are added to each well. After 5 minutes, the plates are read by the luminescence detector.

PPARδ = biological target: T2, PPARδ (Homo sapiens, UniProt Q03181); assay: Cross-curve PPAR transactivation test, PPARδ; details: HeLN cells, stable transfectants ERE-βGlob-Luc-SV-Neo and Gal-hPPARδ; luciferase; cross curves against reference agonist, Schild regression; n.a. means not active; read-out: PPARs delta Kd app
T2 construct: the reporter is ERE-βGlob-Luc
T2 sequence (Q03181 171-441 limits assumed): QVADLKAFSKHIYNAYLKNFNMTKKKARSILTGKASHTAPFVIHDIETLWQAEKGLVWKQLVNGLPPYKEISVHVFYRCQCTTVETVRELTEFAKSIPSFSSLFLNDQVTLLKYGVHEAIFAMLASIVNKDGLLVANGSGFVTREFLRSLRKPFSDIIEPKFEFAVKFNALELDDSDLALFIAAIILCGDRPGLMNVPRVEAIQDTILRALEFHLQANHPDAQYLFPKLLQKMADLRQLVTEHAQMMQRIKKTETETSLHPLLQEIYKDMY
Protocol: as §1, §2, §3, §4, §5

PPARα = biological target: T3, PPARα (Homo sapiens, UniProt Q07869); assay: Cross-curve PPAR transactivation test, PPARα; details: HeLN cells, stable transfectants ERE-βGlob-Luc-SV-Neo and Gal-hPPARα; luciferase; cross curves against reference agonist, Schild regression; n.a. means not active; read-out: PPAR alpha Kd app
T3 construct: the reporter is ERE-βGlob-Luc
T3 sequence (Q07869 200-468 limits assumed): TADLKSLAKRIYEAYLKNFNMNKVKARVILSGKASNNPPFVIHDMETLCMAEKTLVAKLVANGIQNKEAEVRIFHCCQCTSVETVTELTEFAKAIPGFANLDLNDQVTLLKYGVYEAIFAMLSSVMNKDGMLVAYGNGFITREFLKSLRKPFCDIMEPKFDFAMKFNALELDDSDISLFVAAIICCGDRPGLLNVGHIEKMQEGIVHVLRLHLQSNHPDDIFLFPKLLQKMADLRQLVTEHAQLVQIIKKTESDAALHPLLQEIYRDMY
Protocol: as §1, §2, §3, §4, §5

| Kd (PPARγ) | Kd (PPARδ) | Kd (PPARα) | SMILES |
| --- | --- | --- | --- |
| 1000 nM | 500 nM | 2000 nM | CCCCCCCN1C(=O)/C(=N\NC(=O)Nc2cccc(C(F)(F)F)c2)c2cc(SCCc3ccc(C(=O)O)cc3)ccc21 [Example 20, 4-{2-[3-((3-trifluoromethylanilinocarbonyl)hydrazono)-2-oxo-1-heptyl-2,3-dihydro-1H-indol-5-ylsulfanyl]ethyl}benzoic acid] |
| 1000 nM | 60 nM | 2000 nM | CCCCCCCN1C(=O)C(=NNC(=O)Nc2ccccc2Cl)c2cc(SCCc3ccc(C(=O)O)cc3)ccc21 [Example 22, 4-{2-[3((2-chloroanilinocarbonyl)hydrazono)-2-oxo-1-heptyl-2,3-dihydro-1H-indol-5-ylsulfanyl]ethyl}benzoic acid] |
| 250 nM | 500 nM | 8000 nM | O=C(N/N=C1/C(=O)N(CCc2ccccc2)c2ccc(SCCc3ccc(C(=O)O)cc3)cc21)Nc1ccc(C(F)(F)F)cc1Cl [Example 35, 4-{2-[3((2-chloro-4-trifluoromethylanilinocarbonyl)hydrazono)-2-oxo-1-phenethyl-2,3-dihydro-1H-indol-5-ylsulfanyl]ethyl}benzoic acid] |
| 4000 nM | 500 nM |  | CCCCCCN1C(=O)/C(=N/NC(=O)Nc2ccccc2)c2cc(SCCCc3ccc(C(=O)O)cc3)ccc21 [Example 62, 4-[3-(3-((anilinocarbonyl)hydrazono)-2-oxo-1-hexyl-2,3-dihydro-1H-indol-5-ylsulfanyl)propyl]benzoic acid] |
| 4000 nM | 250 nM | 4000 nM | CCCCCCN1C(=O)/C(=N/NC(=O)Nc2ccc(F)cc2)c2cc(SCCCc3ccc(C(=O)O)cc3)ccc21 [Example 74, 4-[3-(3-((4-fluoroanilinocarbonyl)hydrazono)-2-oxo-1-hexyl-2,3-dihydro-1H-indol-5-ylsulfanyl)propyl]benzoic acid] |
| 1000 nM | 30 nM | 500 nM | CCCCCCCN1C(=O)/C(=N\NC(=O)Nc2ccccc2Cl)c2cc(SCCc3ccc(C(=O)O)cc3)ccc21 [Example 84, 4-{2-[3-((2-chloroanilino)carbonylhydrazono)-2-oxo-1-heptyl-2,3-dihydro-1H-indol-5-ylsulfanyl]ethyl}benzoic acid] |

Further lines, the compound ahead of its results:

| SMILES | Kd (PPARγ) | Kd (PPARδ) | Kd (PPARα) |
| --- | --- | --- | --- |
| CCCCN1C(=O)/C(=N/NC(=O)Nc2ccccc2)c2cc(SCCc3ccc(C(=O)O)cc3)ccc21 [Example 14, 4-{2-[3-((anilinocarbonyl)hydrazono)-2-oxo-1-butyl-2,3-dihydro-1H-indol-5-ylsulfanyl]ethyl}benzoic acid] | 1000 nM | 120 nM | 2000 nM |
| O=C(N/N=C1\C(=O)N(CCc2ccccc2)c2ccc(SCCc3ccc(C(=O)O)cc3)cc21)Nc1ccccc1 [Example 16, 4-{2-[3-((anilinocarbonyl)hydrazono)-2-oxo-1-phenethyl-2,3-dihydro-1H-indol-5-ylsulfanyl]ethyl}benzoic acid] | 500 nM | 4000 nM | 2000 nM |
| COC(=O)c1ccc(CCSc2ccc3c(c2)/C(=N\NC(=O)Nc2cccc(F)c2)C(=O)N3CCc2ccccc2)cc1 [Example 17, methyl 4-{2-[3-((3-fluoroanilinocarbonyl)hydrazono)-2-oxo-1-phenethyl-2,3-dihydro-1H-indol-5-ylsulfanyl]ethyl}benzoate] | 1000 nM |  | 250 nM |
| CCCCN1C(=O)/C(=N\NC(=O)Nc2cccc(F)c2)c2cc(SCCc3ccc(C(=O)O)cc3)ccc21 [Example 18, 4-{2-[3-((3-fluoroanilinocarbonyl)hydrazono)-2-oxo-1-butyl-2,3-dihydro-1H-indol-5-ylsulfanyl]ethyl}benzoic acid] | 500 nM | 250 nM | 2000 nM |
